In brackets after ≈: the same amount, converted by molar mass.
Tests used:
C. albicans 56214 = conditions: 56214, 48 h
C. albicans strains = test: Geometric mean of MIC values against all tested C. albicans; format: cell-based, Candida albicans
C. albicans 56452 = conditions: 56452, 48 h
C. albicans cgmcc 2.2086 [1] = test: Membrane potential assay, DiSC3(5); format: cell-based, Candida albicans; conditions: 0.5 × MIC
Excerpt: The alteration of membrane potential in peptide-treated C. albicans was detected using the membrane potential-sensitive fluorescent probe, 3,3′-dipropylthiadicarbocyanine iodide [DiSC3(5)] (Sigma-Aldrich, Shanghai, China), as previously described ([Qi et al., 2010]). In brief, C. albicans cells in mid-logarithmic growth-phase were harvested and suspended to an OD600 of 0.05 with 5-mM 4-(2-hydroxyethyl)-1-piperazineethanesulfonic acid buffer (pH 7.4, containing 20-mM glucose). After the addition of 0.4-μM DiSC3(5), samples were incubated for 90 min in the dark to obtain a stable reduction in fluorescence, and then, potassium chloride (4 M) was added to the cell suspension to give a final concentration of 100 mM. Subsequently, 2 ml of cell suspension was added to a 1-cm quartz cuvette and mixed with peptides at different concentrations. The changes in fluorescence were recorded for 900 s with an F-4500 fluorescence spectrophotometer (Hitachi, Japan) at excitation and emission wavelengths of 622 and 670 nm, respectively.

C. albicans cgmcc 2.2086 [2] = test: Antifungal activity assay (broth microdilution, MIC/MFC); format: cell-based, Candida albicans; conditions: cgmcc 2.2086, 48 h
[3] = system: C. tropicalis cgmcc 2.1975; test: as above; format: cell-based, Candida tropicalis; conditions: cgmcc 2.1975, 48 h
C. albicans sp3902 = conditions: sp3902, 48 h
C. albicans sp3903 = conditions: sp3903, 48 h
C. albicans 17546 = conditions: 17546, 48 h
C. albicans 58288 = conditions: 58288, 48 h
[4] = system: C. parapsilosis cgmcc 2.3989; test: Antifungal activity assay (broth microdilution, MIC/MFC); format: cell-based, Candida parapsilosis; conditions: cgmcc 2.3989, 48 h
C. albicans sp3931 = conditions: sp3931, 48 h
C. albicans 14936 = conditions: 14936, 48 h
C. albicans sp3876 = conditions: sp3876, 48 h

SMILES: CC[C@H](C)[C@H](NC(=O)CN)C(=O)NCC(=O)N[C@@H](C)C(=O)N[C@H](C(=O)N[C@@H](CC(C)C)C(=O)N[C@@H](CCCCN)C(=O)N[C@H](C(=O)N[C@@H](CC(C)C)C(=O)N[C@H](C(=O)N[C@H](C(=O)NCC(=O)N[C@@H](CC(C)C)C(=O)N1CCC[C@H]1C(=O)N[C@@H](C)C(=O)N[C@@H](CC(C)C)C(=O)N[C@H](C(=O)N[C@@H](CO)C(=O)N[C@@H](Cc1c[nH]c2ccccc12)C(=O)N[C@H](C(=O)N[C@@H](CCCCN)C(=O)N[C@@H](CCCNC(=N)N)C(=O)N[C@@H](CCCCN)C(=O)N[C@@H](CCCNC(=N)N)C(=O)N[C@@H](CCC(N)=O)C(=O)N[C@@H](CCC(N)=O)C(N)=O)[C@@H](C)CC)[C@@H](C)CC)[C@@H](C)O)[C@@H](C)O)C(C)C)C(C)C [Melittin, reference compound]
- MFC (C. albicans 56214): 4 µM (≈ 11.4 µg/mL)
- MIC (C. albicans 56214; pH 7): 4 µM (≈ 11.4 µg/mL)
- GM (C. albicans strains): 4.59 µM
- MFC (C. albicans 56452): 8 µM (≈ 22.8 µg/mL)
- MIC (C. albicans 56452; pH 7): 8 µM (≈ 22.8 µg/mL)
- cytoplasmic membrane depolarization, melittin against RF3 (in words) (C. albicans cgmcc 2.2086 [1]): stronger membrane depolarization
- MFC (C. albicans cgmcc 2.2086 [2]): 8 µM (≈ 22.8 µg/mL)
- MIC (C. albicans cgmcc 2.2086 [2]; pH 7): 4 µM (≈ 11.4 µg/mL)
- MFC [3]: 8 µM (≈ 22.8 µg/mL)
- MIC ([3]; pH 7): 4 µM (≈ 11.4 µg/mL)
- MFC (C. albicans sp3902): 2 µM (≈ 5.69 µg/mL)
- MIC (C. albicans sp3902; pH 7): 2 µM (≈ 5.69 µg/mL)
- MFC (C. albicans sp3903): 4 µM (≈ 11.4 µg/mL)
- MIC (C. albicans sp3903; pH 7): 4 µM (≈ 11.4 µg/mL)
- MFC (C. albicans 17546): 8 µM (≈ 22.8 µg/mL)
- MIC (C. albicans 17546; pH 7): 8 µM (≈ 22.8 µg/mL)
- MFC (C. albicans 58288): 4 µM (≈ 11.4 µg/mL)
- MIC (C. albicans 58288; pH 7): 4 µM (≈ 11.4 µg/mL)
- MFC [4]: 2 µM (≈ 5.69 µg/mL)
- MIC ([4]; pH 7): 2 µM (≈ 5.69 µg/mL)
- MFC (C. albicans sp3931): 8 µM (≈ 22.8 µg/mL)
- MIC (C. albicans sp3931; pH 7): 8 µM (≈ 22.8 µg/mL)
- MFC (C. albicans 14936): 8 µM (≈ 22.8 µg/mL)
- MIC (C. albicans 14936; pH 7): 4 µM (≈ 11.4 µg/mL)
- MFC (C. albicans sp3876): 4 µM (≈ 11.4 µg/mL)
- MIC (C. albicans sp3876; pH 7): 4 µM (≈ 11.4 µg/mL)

Source: article PMC7554340, “A Novel Dual-Targeted α-Helical Peptide With Potent Antifungal Activity Against Fluconazole-Resistant Candida albicans Clinical Isolates” (Frontiers in Microbiology, 2020)
